Test results: patent US9718812B2, “Substituted thiazole or oxazole P2X7 receptor antagonists” (Axxam S.P.A., priority 2014, dated 2017)

Experiments:
Type in all cases: cell-based
P2X7 receptor (hP2X7) = P2X7 receptor (hP2X7) (Homo sapiens (Human), UniProt Q99572); test: Screen Quest Fluo-8 No Wash Calcium Assay (Bz-ATP-induced Ca2+ influx, FLIPR TETRA); conditions: HEK-293 cells stably transfected with P2X7 receptor, Fluo-8 calcium, Low Divalent Cation Assay Buffer
Summary of the method: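 Read-out is Fluo-8 NW fluorescence recorded over a 5-min kinetic window, reporting Bz-ATP-evoked Ca2+ entry. Cells: HEK-293 stably expressing the P2X7 receptor, dye-loaded for 1 h at room temperature before compound injection.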

P2X7 receptor [1] = molecular target: T1, P2X7 receptor (Homo sapiens (Human), UniProt Q99572); test: YO-PRO-1 Uptake Assay (large pore form, Bz-ATP stimulated); conditions: HEK-293 cells stably transfected with P2X7 receptor; Bz-ATP EC80 (30 μM); 5 μM YO-PRO-1
T1 sequence (Q99572 whole entry): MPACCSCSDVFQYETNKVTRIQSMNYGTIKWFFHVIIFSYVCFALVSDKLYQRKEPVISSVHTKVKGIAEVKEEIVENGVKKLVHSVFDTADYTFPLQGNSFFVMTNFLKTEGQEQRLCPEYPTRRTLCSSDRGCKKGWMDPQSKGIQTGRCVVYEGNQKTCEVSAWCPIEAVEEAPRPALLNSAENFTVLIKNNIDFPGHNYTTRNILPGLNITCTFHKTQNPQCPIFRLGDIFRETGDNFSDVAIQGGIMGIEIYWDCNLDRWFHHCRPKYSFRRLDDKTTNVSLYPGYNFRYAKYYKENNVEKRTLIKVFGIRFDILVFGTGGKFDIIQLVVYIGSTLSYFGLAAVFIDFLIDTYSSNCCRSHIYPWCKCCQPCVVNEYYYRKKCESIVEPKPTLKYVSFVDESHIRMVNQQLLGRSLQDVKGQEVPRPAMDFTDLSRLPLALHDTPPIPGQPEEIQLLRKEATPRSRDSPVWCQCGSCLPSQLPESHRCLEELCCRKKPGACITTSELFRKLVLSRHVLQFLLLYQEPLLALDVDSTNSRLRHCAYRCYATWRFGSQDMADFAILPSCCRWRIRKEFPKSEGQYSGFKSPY
Source text: YO-PRO®-1 is a fluorescent DNA-binding dye with a MW of 374 Da (Molecular Probes®, cat. Y3603). This method is based upon the presumed ability of YO-PRO®-1 to enter through the dilated or “large pore form” of P2X7 receptor and to bind to intracellular DNA whereupon it increases many fold its fluorescence intensity. The dye has an absorption spectrum compatible with excitation at 488 nm by argon laser sources and its emission wavelength is in the range of 515-575 nm. The aim of this assay was to validate the interaction of antagonists with P2X7 receptor using an alternative readout to Ca^2+-sensitive fluorescent dyes.
HEK-293 cells stably transfected with P2X7 receptor were seeded overnight in growth medium at 20,000 cells/well in 384-well plate. 24 hours later, the medium was removed, the cells were washed with Low Divalent Cation Assay Buffer (0.3 mM Ca2+ and 0 mM Mg2+) and then pre-loaded with 20 μL/w of 5 μM YO-PRO®-1 dye. […] fluorescence measurement immediately started. Then, 10 μL/w of test compounds and reference antagonist A438079 at 3×-concentration were injected with the […] and the kinetic response over a period of five minutes was monitored. A second injection of 10 μL/w of 3× Bz-ATP EC80 (30 μM) was performed with the […] and the signal of the emitted fluorescence was recorded for additional 60 minutes. All the experiment was carried out with a Low Divalent Cation Assay Buffer (0.3 mM Ca^2+ and 0 mM Mg^2+).
The effect of the test compounds was measured as percent inhibition vs the reference antagonist and IC50 values were calculated accordingly.

P2X7 receptor [2] = molecular target: T1, P2X7 receptor; test: human P2X7 channel assay by automated patch-clamp (QPatch 16X); conditions: HEK-293 cells expressing P2X7 channels, 100 microM BzATP, held at -80 mV, read-out: hP2X7 (IC50; nM)
Protocol: In order to directly monitor the block of P2X7 channel, an electrophysiological assay was developed and implemented on the QPatch 16X automated electrophysiology instrument.
HEK-293 cells expressing the P2X7 channels were cultured in modified EMEM.
72 hours before experiment, 5 million cells were seeded onto T225 flasks. Just before the experiment cells were washed twice, detached from the flask with trypsin-EDTA, re-suspended in the suspension solution and placed on the QPatch 16x.
The compounds (20 mM in a 100% DMSO) stored at −20° C. were prepared the day of the experiment (a first dilution 1:20 in 100% DMSO to prepare a 1 mM stock solution, then a 1 microM solution in external solution+a serial dilution 1:10).
The standard whole-cell voltage clamp experiments were performed at room temperature. For these experiments the multihole technology was used and the data were sampled at 2 KHz.
The intracellular solution contained (mM) 135 CsF, 10 NaCl, 1 EGTA, 10 HEPES, (pH 7.2 with CsOH) whereas the extracellular contained (mM) 145 NaCl, 4 KCl, 0.5 MgCl2, 1 CaCl2, 10 HEPES, 10 Glc (pH 7.4 with NaOH).
After establishment of the seal and the passage in the whole cell configuration, the cells were held at −80 mV. The P2XR7 current was evoked by applying 100 microM of BzATP alone (4 times) and then in the presence increasing concentrations of the compound under investigation (1, 10, 100 and 1000 nM).
The pre-incubation periods 5 to 8 contain increasing concentrations of the compound of interest (1, 10, 100 and 1000 nM), as illustrated in Figure (application protocol).
The maximal inward current evoked by BzATP in absence or presence of increasing concentrations of the compounds under investigation was measured and normalized.
Y: normalized response, 100% down to 0%, decreasing as X increases.
Log IC50: same log units as X
HillSlope: slope factor or HS, unitless

P2X7 receptor (hP2X7), sequence (Q99572 whole entry): as above

Compound | IC50 (P2X7 receptor (hP2X7)) | IC50 (P2X7 receptor [1]) | IC50 (P2X7 receptor [2])
Cc1ncc(C(CNC(=O)c2cc(-c3ncc(F)cn3)ccc2Cl)N2CCC(F)(F)CC2)s1 (racemic) [Compound 61, 2-chloro-N-[2-(4,4-difluoropiperidin-1-yl)-2-(2-methyl-1,3-thiazol-5-yl)ethyl]-5-(5-fluoropyrimidin-2-yl)benzamide] | 280 nM | 124 nM | 56.3 nM
Cc1ncc(C(CNC(=O)c2cc(-c3ncc(F)cn3)ccc2Cl)N2CCC(F)(F)CC2)s1 (single isomer, unassigned; (+)) [Compound 127, (+)-2-chloro-N-[2-(4,4-difluoro-piperidin-1-yl)-2-(2-methylthiazol-5-yl)ethyl]-5-(5-fluoropyrimidin-2-yl)benzamide] | 73 nM | 22 nM | 65.7 nM
Cc1ncsc1C(CNC(=O)c1c(F)cccc1Cl)N1CCOCC1 (stereo not drawn) [Compound 35, 2-chloro-6-fluoro-N-[2-(4-methyl-1,3-thiazol-5-yl)-2-(morpholin-4-yl)ethyl]benzamide] | 469 nM | 4080 nM | 947 nM
Cc1ncc(C(CNC(=O)c2c(C)cccc2Cl)N2CCC(F)(F)CC2)s1 (stereo not drawn) [Compound 39, 2-chloro-N-[2-(4,4-difluoropiperidin-1-yl)-2-(2-methyl-1,3-thiazol-5-yl)ethyl]-6-methylbenzamide] | 28 nM | 18 nM | 61.9 nM
O=C(NCC(c1cnco1)N1CCC(F)(F)CC1)c1cc(-c2ncc(F)cn2)ccc1Cl (stereo not drawn) [Compound 47, 2-chloro-N-[2-(4,4-difluoropiperidin-1-yl)-2-(1,3-oxazol-5-yl)ethyl]-5-(5-fluoropyrimidin-2-yl)benzamide] | 43 nM | 36 nM | 33.9 nM
Cc1ncoc1C(CNC(=O)c1ccc(-c2ncc(F)cn2)cc1Cl)N1CCc2ccccc2C1 (stereo not drawn) [Compound 57, 2-chloro-4-(5-fluoropyrimidin-2-yl)-N-[2-(4-methyl-1,3-oxazol-5-yl)-2-(1,2,3,4-tetrahydroisoquinolin-2-yl)ethyl]benzamide] | 214 nM | 197 nM | 71 nM
Cc1ncsc1C(CNC(=O)c1c(F)cccc1Cl)N1CCC(OCc2ccccc2)CC1 (stereo not drawn) [Compound 59, N-{2-[4-(benzyloxy)piperidin-1-yl]-2-(4-methyl-1,3-thiazol-5-yl)ethyl}-2-chloro-6-fluorobenzamide] | 242 nM | 55 nM | 69.2 nM
Cc1ncsc1C(CNC(=O)c1c(F)cccc1Cl)N1CCC(Oc2ccccc2)CC1 (stereo not drawn) [Compound 60, 2-chloro-6-fluoro-N-[2-(4-methyl-1,3-thiazol-5-yl)-2-(4-phenoxypiperidin-1-yl)ethyl]benzamide] | 188 nM | 79 nM | 58.9 nM
O=C(NCC(c1scnc1C(F)(F)F)N1CCC(F)(F)CC1)c1c(F)cccc1Cl (stereo not drawn) [Compound 67, 2-chloro-N-[2-(4,4-difluoropiperidin-1-yl)-2-[4-(trifluoromethyl)-1,3-thiazol-5-yl]ethyl]-6-fluorobenzamide] | 108 nM | 287 nM | 117 nM
Cc1ncsc1C(CNC(=O)c1cc(-c2ncc(F)cn2)ccc1F)N1CCC(F)(F)CC1 (stereo not drawn) [Compound 70, N-[2-(4,4-difluoropiperidin-1-yl)-2-(4-methyl-1,3-thiazol-5-yl)ethyl]-2-fluoro-5-(5-fluoropyrimidin-2-yl)benzamide] | 32 nM | 183 nM | 58.4 nM
Cc1ncsc1C(CN(C)C(=O)c1cc(-c2ncc(F)cn2)ccc1Cl)N1CCC(F)(F)CC1 (stereo not drawn) [Compound 77, 2-chloro-N-[2-(4,4-difluoropiperidin-1-yl)-2-(4-methyl-1,3-thiazol-5-yl)ethyl]-5-(5-fluoropyrimidin-2-yl)-N-] | 1760 nM | – | 183 nM
CCCc1ncc(C(CNC(=O)c2c(F)cccc2Cl)N2CCC(F)(F)CC2)s1 (stereo not drawn) [Compound 109, 2-chloro-N-[2-(4,4-difluoropiperidin-1-yl)-2-(2-propyl-1,3-thiazol-5-yl)ethyl]-6-fluorobenzamide] | 78 nM | 50 nM | –
O=C(NCC(c1cnc(C2CCC2)s1)N1CCC(F)(F)CC1)c1cc(-c2ncc(F)cn2)ccc1Cl (stereo not drawn) [Compound 111] | 1020 nM | 326 nM | –
O=C(NCC(c1cnc(CO)s1)N1CCC(F)(F)CC1)c1cc(-c2ncc(F)cn2)ccc1Cl (stereo not drawn) [Compound 112] | 119 nM | 36 nM | –

More lines, in order of falling IC50 (P2X7 receptor (hP2X7)), values ahead:

IC50 (P2X7 receptor (hP2X7)) | IC50 (P2X7 receptor [1]) | IC50 (P2X7 receptor [2]) | Compound
1240 nM | 807 nM | – | O=C(NCC(c1cnc(C2CCC2)s1)N1CCC(F)(F)CC1)c1cc(-c2ncc(F)cn2)ccc1F (stereo not drawn) [Compound 106, N-[2-(2-cyclobutyl-1,3-thiazol-5-yl)-2-(4,4-difluoropiperidin-1-yl)ethyl]-2-fluoro-5-(5-fluoropyrimidin-2-yl)benzamide]
631 nM | 158 nM | – | CCCc1ncc(C(CNC(=O)c2cc(-c3ncc(F)cn3)ccc2Cl)N2CCC(F)(F)CC2)s1 (stereo not drawn) [Compound 107, 2-chloro-N-[2-(4,4-difluoropiperidin-1-yl)-2-(2-propyl-1,3-thiazol-5-yl)ethyl]-5-(5-fluoropyrimidin-2-yl)benzamide]
199 nM | 77 nM | – | CCCc1ncc(C(CNC(=O)c2cccc3ncccc23)N2CCC(F)(F)CC2)s1 (stereo not drawn) [Compound 108, N-[2-(4,4-difluoropiperidin-1-yl)-2-(2-propyl-1,3-thiazol-5-yl)ethyl]quinoline-5-carboxamide]
130 nM | 90 nM | 36.1 nM | Cc1ncsc1C(CNC(=O)c1c(F)cccc1Cl)N1CCc2ccccc2C1 (stereo not drawn) [Compound 29, 2-chloro-6-fluoro-N-[2-(4-methyl-1,3-thiazol-5-yl)-2-(1,2,3,4-tetrahydroisoquinolin-2-yl)ethyl]benzamide]
119 nM | 46 nM | – | O=C(NCC(c1cnc(C2CCC2)s1)N1CCC(F)(F)CC1)c1c(F)cccc1Cl (stereo not drawn) [Compound 110, 2-chloro-N-[2-(2-cyclobutyl-1,3-thiazol-5-yl)-2-(4,4-difluoropiperidin-1-yl)ethyl]-6-fluorobenzamide]
103 nM | 181 nM | 63.1 nM | O=C(NCC(c1scnc1C(F)(F)F)N1CCC(F)(F)CC1)c1cc(-c2ncc(F)cn2)ccc1Cl (stereo not drawn) [Compound 68]
60 nM | 41 nM | – | O=C(NCC(c1cnc(C2CCC(F)(F)CC2)s1)N1CCOCC1)c1c(F)cccc1Cl (stereo not drawn) [Compound 116, 2-chloro-N-{2-[2-(4,4-difluorocyclohexyl)-1,3-thiazol-5-yl]-2-(morpholin-4-yl)ethyl}-6-fluorobenzamide]
27 nM | 24 nM | 22.7 nM | Cc1cccc(C)c1C(=O)NCC(c1cncs1)N1CCC(F)(F)CC1 (stereo not drawn) [Compound 14, N-[2-(4,4-difluoropiperidin-1-yl)-2-(1,3-thiazol-5-yl)ethyl]-2,6-dimethylbenzamide]
22 nM | 58 nM | 82.5 nM | Cc1ncsc1C(CNC(=O)c1cc(-c2ncc(F)cn2)ccc1Cl)N1CCCC(F)(F)C1 (stereo not drawn) [Compound 66, 2-chloro-N-[2-(3,3-difluoropiperidin-1-yl)-2-(4-methyl-1,3-thiazol-5-yl)ethyl]-5-(5-fluoropyrimidin-2-yl)benzamide]
